Where a name gives a salt, the structure may show the parent alone.
target: T1, human D2 receptor (Homo sapiens, UniProt P14416); assay: D2 receptor radioligand binding assay (membranes of HEK-293 cells expressing human D2 receptor); conditions: radioligand displacement, HEK293 membranes, 37° C. for 120 minutes; read-out: Affinity Score (IC50 values for D2 on a scale of 1 through 5)
T1 construct: expressed in transfected cells; cDNA from Origene clones TC308892 and SC123573
Protocol: Affinity for the dopamine D2 receptor was tested in vitro, and the following describes the construction of cell lines expressing human D2 receptor, as well as the binding assays themselves.
Establishment of Stable Cell Lines Expressing Either the Cloned Human D2S Receptor or the Cloned Human D2L Receptor.
The human D2 receptor exists in two isoforms: the short form (D2S) and the long form (D2L). The two isoforms are generated from the D2 gene by alternative splicing and the D2L isoform differs from the D2S isoform by the addition of 29 amino acids in the third intracellular loop of its protein structure.
To establish HEK-293 cell lines stably expressing either the human D2S or the human D2L, the human dopamine D2S receptor (Genebank Accession Number NM_016574) and human dopamine D2L receptor (Genebank Accession Number BC021195) were amplified by PCR from Origene cDNA clones TC308892 and SC123573 (respectively) using the following primers: 5-[…]-3 (SEQ ID NO: 1) sense and 5-[…]-3 (SEQ ID NO: 2) antisense. The resulting PCR products were respectively cloned into pENTR-D-TOPO (Invitrogen), sequenced and then transferred into the pCDNA3.2-DEST (Invitrogen) using the LR-clonasc gateway reaction (Invitrogen) and sequenced again to verify the genes sequence.
HEK293 cells were maintained in Eagles Minimum Essential Medium (MEM) supplemented with 0.292 g/L L-glutamine and 10% (v/v) fetal calf serum at 37° C. in a 5% CO2 humidified atmosphere. Cells were grown to 60-80% confluency in 10 cm dishes before transfection. Transfection of the D2S and D2L containing pcDNA3.2-DEST into HEK-293 cells were performed using Lipofectamine 2000 (Invitrogen). Transfected cells were seeded and diluted 2 days after transfection and maintained in culture medium supplemented with 500 μg/mL G418. The HEK-293 cell line expressing the huD2S (R2D2S) and the huD2L (R2D2L) were maintained in culture medium supplemented with 500 μg/mL G418.
D2 Receptor Binding Assays
HEK293 cells were in Eagles Minimum Essential Medium (MEM) supplemented with 10% FBS, 0.292 g/liter L-glutamine, 10^5 units/liter penicillin, 100 mg/liter streptomycin and […] Geneticin at 37° C. in a 5% CO2 humidified atmosphere. Cells were grown to 80-90% confluence and harvested with cell stripper (Cellgro #25-056-CI). Cells were then washed with PBS (2×). Cells were either pelleted and frozen at −80° C. or membranes were prepared immediately.
Cells from pellet were resuspended in homogenization buffer (15 mM Tris*HCl, 2 mM MgCl2*6H2O, 0.3 mM EDTA, 1 mM EGTA pH 7.4 @ 4° C.). Cells were then homogenized using a Polytron (PT 1200) homogenizer at setting 6 for 10 seconds. Crude membranes were pelleted at 39, 412 g for 15 min, at 4° C. (2×) in a Sorval RC6 plus centrifuge. Membranes were finally resuspended in resuspension buffer (50 mM Tris*HCl, 120 mM NaCl, 10 mM MgCl2*6H2O, 1 mM EDTA pH 7.4 @ 4° C.) and sonicated (Fisher Sonic Dismembrator) at setting 5 for 10 seconds.
The radioligand binding assays were conducted in microtiter plates (Costar #3961) with a final volume of 1.0 mL.
The membranes were thawed at room temperature, briefly homogenized using a sonicator, diluted in assay buffer and kept on wet ice until being added to the assay plate. Membranes were diluted to a final target tissue concentration of 10 μg protein per well. The specific binding should be greater than 80% with less than 10% total radioligand bound to minimize ligand depletion errors.
First compound of the invention (50 μL) or assay buffer (50 mM Tris*HCl, 120 mM NaCl, 5 mM MgCl2*6H2O, 1 mM EDTA, 5 mM KCl pH 7.4 @37° C. plus 0.025% BSA), buffer (700 μL) and then membrane (200 μL) were added to the deep well assay plate, which was then shaken for 10 minutes. Finally, radioligand (50 μL) was added.
The assay plates were incubated at 37° C. for 120 minutes.
The assay plate were filtered over 0.3% PEI pretreated glass fiber filtermats (GF/C) using a Packard Filtermate cell harvester. […]

T1 sequence (P14416 whole entry): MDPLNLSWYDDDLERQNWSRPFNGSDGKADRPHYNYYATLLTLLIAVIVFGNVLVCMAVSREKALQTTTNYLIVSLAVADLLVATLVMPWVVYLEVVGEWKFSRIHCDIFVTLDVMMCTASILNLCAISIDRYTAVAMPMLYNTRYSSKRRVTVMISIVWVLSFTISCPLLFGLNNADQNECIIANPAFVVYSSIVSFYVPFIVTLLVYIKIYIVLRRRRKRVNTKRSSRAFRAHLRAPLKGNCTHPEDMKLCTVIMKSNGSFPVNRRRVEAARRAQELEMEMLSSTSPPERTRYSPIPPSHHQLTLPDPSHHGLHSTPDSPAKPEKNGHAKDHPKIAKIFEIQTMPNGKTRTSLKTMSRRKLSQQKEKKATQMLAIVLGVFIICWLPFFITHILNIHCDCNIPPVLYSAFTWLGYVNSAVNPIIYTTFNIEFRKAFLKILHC

| SMILES | IC50 [nM] |
| --- | --- |
| O=C(O)c1ccccc1CN1CN(c2ccc(F)cc2)C2(CCN(CCCN3C(=O)C4(CC4)c4ccccc43)CC2)C1=O [Compound 161, 2-((1-(4-Fluorophenyl)-4-oxo-8-(3-(2′-oxospiro[cyclopropane-1,3′-indoline]-1′-yl)propyl)-1,3,8-triazaspiro[4.5]decan-3-yl)methyl)benzoic acid] | < 10 |
| CC1(F)C(=O)N(CCCN2CCC3(CC2)C(=O)N(Cc2ccccc2C(=O)O)CN3c2ccccc2)c2ccccc21 (centres unmarked) [Compound 162, 2-((8-(3-(3-Fluoro-3-methyl-2-oxoindolin-1-yl)propyl)-4-oxo-1-phenyl-1,3,8-triazaspiro[4.5]decan-3-yl)methyl)benzoic acid] | < 10 |
| CC1(F)C(=O)N(CCCN2CCC3(CC2)C(=O)N(Cc2ccccc2C(=O)O)CN3c2ccc(F)cc2)c2ccccc21 (centres unmarked) [Compound 163] | < 10 |
| CC1(F)C(=O)N(CCCN2CCC3(CC2)C(=O)N(Cc2cccc(C(=O)O)c2)CN3c2ccc(F)cc2)c2ccccc21 (centres unmarked) [Compound 164, 3-((8-(3-(3-Fluoro-3-methyl-2-oxoindolin-1-yl)propyl)-1-(4-fluorophenyl)-4-oxo-1,3,8-triazaspiro[4.5]decan-3-yl)methyl)benzoic acid] | < 10 |
| O=C(O)[C@@H](c1ccccc1)N1CN(c2ccccc2)C2(CCN(CCCN3C(=O)Cc4ccccc43)CC2)C1=O [Compound 166, (R)-2-(4-oxo-8-(3-(2-oxoindolin-1-yl)propyl)-1-phenyl-1,3,8-triazaspiro[4.5]decan-3-yl)-2-phenylacetic acid] | < 10 |
| O=C(CCCN1CCC2(CC1)C(=O)N([C@@H](C(=O)O)c1ccccc1)CN2c1ccccc1)c1ccccc1 [Compound 167, (R)-2-(4-oxo-8-(4-oxo-4-phenylbutyl)-1-phenyl-1,3,8-triazaspiro[4.5]decan-3-yl)-2-phenylacetic acid] | < 10 |
| O=C(CCCN1CCC2(CC1)C(=O)N([C@H](C(=O)O)c1ccccc1)CN2c1ccccc1)c1ccccc1 [Compound 168, (S)-2-(4-oxo-8-(4-oxo-4-phenylbutyl)-1-phenyl-1,3,8-triazaspiro[4.5]decan-3-yl)-2-phenylacetic acid] | < 10 |
| O=C(O)[C@H](c1ccccc1)N1CN(c2ccccc2)C2(CCN(CCCN3C(=O)Cc4ccccc43)CC2)C1=O [Compound 170, (S)-2-(4-oxo-8-(3-(2-Oxoindolin-1-yl)propyl)-1-phenyl-1,3,8-triazaspiro[4.5]decan-3-yl)-2-phenylacetic acid] | < 10 |
| CC1(C)C(=O)N(CCCN2CCC3(CC2)C(=O)N(Cc2ccc(C(=O)O)cc2)CN3c2ccccc2)c2ccccc21 [Compound 171, 4-((8-(3-(3,3-dimethyl-2-oxoindolin-1-yl)propyl)-4-oxo-1-phenyl-1,3,8-triazaspiro[4.5]decan-3-yl)methyl)benzoic acid, hydrochloride] | < 10 |
| O=C(O)c1cccc(CN2CN(c3ccccc3)C3(CCN(CCCC(O)c4ccccc4)CC3)C2=O)c1 (centres unmarked) [Compound 173, 3-((8-(4-hydroxy-4-phenylbutyl)-4-oxo-1-phenyl-1,3,8-triazaspiro[4.5]decan-3-yl)methyl)benzoic acid] | < 10 |
| O=C(O)c1cccc(CN2CN(C3CCCCC3)C3(CCN(CCCC(=O)c4ccccc4)CC3)C2=O)c1 [Compound 176, 3-((1-cyclohexyl-4-oxo-8-(4-oxo-4-phenylbutyl)-1,3,8-triazaspiro[4.5]decan-3-yl)methyl)benzoic acid, hydrochloride] | < 10 |
| O=C(O)c1cccc(N2CN(c3ccccc3)C3(CCN(CCCC(=O)c4ccccc4)CC3)C2=O)c1 [Compound 177, 3-(4-Cho-8-(4-oxo-4-phenylbutyl)-1-phenyl-1,3,8-triazaspiro[4.5]decan-3-yl)benzoic acid] | < 10 |
| COC(=O)c1cccc(N2CN(c3ccccc3)C3(CCN(CCCC(=O)c4ccccc4)CC3)C2=O)c1 [Compound 179, Methyl 3-(4-oxo-8-(4-oxo-4-phenylbutyl)-1-phenyl-1,3,8-triazaspiro[4.5]decan-3-yl)benzoate] | < 10 |
| O=C(CCCN1CCC2(CC1)C(=O)N(c1ccccc1C(=O)O)CN2c1ccccc1)c1ccccc1 [Compound 180, 2-(4-oxo-8-(4-oxo-4-phenylbutyl)-1-phenyl-1,3,8-triazaspiro[4.5]decan-3-yl)benzoic acid] | < 10 |
| O=C(O)c1ccc(N2CN(c3ccccc3)C3(CCN(CCCC(=O)c4ccccc4)CC3)C2=O)cc1 [Compound 182, 4-(4-Cho-8-(4-oxo-4-phenylbutyl)-1-phenyl-1,3,8-triazaspiro[4.5]decan-3-yl)benzoic acid, hydrochloride] | < 10 |
| CS(=O)(=O)Nc1ccc(CN2CN(c3ccccc3)C3(CCN(CCCC(=O)c4ccccc4)CC3)C2=O)cc1 [Compound 186, N-(4-((4-oxo-8-(4-oxo-4-phenylbutyl)-1-phenyl-1,3,8-triazaspiro[4.5]decan-3-yl)methyl)phenyl)methanesulfonamide] | < 10 |
| CS(=O)(=O)Nc1cccc(N2CN(c3ccccc3)C3(CCN(CCCC(=O)c4ccc(F)cc4)CC3)C2=O)c1 [Compound 211] | < 10 |
| CS(=O)(=O)Nc1cccc(CN2CN(c3ccccc3)C3(CCN(CCCN4C(=O)C5(CC5)c5ccccc54)CC3)C2=O)c1 [Compound 212, N-(3-((4-Oxo-8-(3-(2′-oxospiro[cyclopropane-1,3′-indoline]-1′-yl)propyl)-1-phenyl-1,3,8-triazaspiro[4.5]decan-3-yl)methyl)phenyl)methanesulfonamide] | < 10 |
| CS(=O)(=O)Nc1cccc(CN2CN(c3ccccc3)C3(CCN(CCCN4C(=O)Cc5ccccc54)CC3)C2=O)c1 [Compound 213, N-(3-((4-Cho-8-(3-(2-oxoindolin-1-yl)propyl)-1-phenyl-1,3,8-triazaspiro[4.5]decan-3-yl)methyl)phenyl)methanesulfonamide] | < 10 |
| CS(=O)(=O)Nc1ccc(N2CN(c3ccccc3)C3(CCN(CCCC(=O)c4ccc(F)cc4)CC3)C2=O)cc1 [Compound 214, N-(4-(8-(4-(4-Fluorophenyl)-4-oxobutyl)-4-oxo-1-phenyl-1,3,8-triazaspiro[4.5]decan-3-yl)phenyl)methanesulfonamide] | < 10 |
| CS(=O)(=O)Nc1ccc(N2CN(c3ccccc3)C3(CCN(CCCN4C(=O)Cc5ccccc54)CC3)C2=O)cc1 [Compound 215, N-(4-(4-oxo-8-(3-(2-oxoindolin-1-yl)propyl)-1-phenyl-1,3,8-triazaspiro[4.5]decan-3-yl)phenyl)methanesulfonamide] | < 10 |
| CS(=O)(=O)Nc1ccc(N2CN(c3ccccc3)C3(CCN(CCCN4C(=O)C5(CC5)c5ccccc54)CC3)C2=O)cc1 [Compound 216, N-(4-(4-Oxo-8-(3-(2′-oxospiro[cyclopropane-1,3′-indoline]-1′-yl)propyl)-1-phenyl-1,3,8-triazaspiro[4.5]decan-3-yl)phenyl)methanesulfonamide] | < 10 |
| CC1(C)C(=O)N(CCCN2CCC3(CC2)C(=O)N(c2ccc(NS(C)(=O)=O)cc2)CN3c2ccccc2)c2ccccc21 [Compound 217, N-(4-(8-(3-(3,3-Dimethyl-2-oxoindolin-1-yl)propyl)-4-oxo-1-phenyl-1,3,8-triazaspiro[4.5]decan-3-yl)phenyl)methanesulfonamide] | < 10 |

Source: patent publication US9156840B2, “D2 antagonists, methods of synthesis and methods of use” (ALTOS THERAPEUTICS, LLC, priority 2010, dated 2015)
